This is an account of results in patent US20170239212A1, “[…] AND USE THEREOF AS ANTIVIRAL AGENTS” (priority 2014, published 2017).

What is called EC50 is the concentration giving half of the maximal effect. One may read the CC50 as the concentration giving 50% cytotoxicity. High values mean lower toxicity to the cells, low ones greater toxicity to the cells.

Read-outs that look alike come from different tables or passages of the source.

For data set [1] the following is noted: ester bond, 2,4,6-trichlorobenzoyl chloride / Et3N / DMAP, toluene, 40.0 °C, 14.0 h.
Data set [2] relates to U937 cells. Description: Inhibition of U937 cell proliferation. Type of data set: cell-based, human. The method, then: (§1) U937 cells (Sundstrom, C.; Nilsson, K.: Establishment and characterization of a human histiocytic lymphoma cell line (U-937). Int. J. Cancer 1976, 17: 565-577), purchased from ATCC (Manassas, Va.) and cultured in RPMI-1640 medium supplemented with 10% FBS (ATCC, Manassas, Va.), were plated in 35 mm dishes at a density of 2×10^5 living cells/ml and treated with different concentrations of the drugs or DMSO. After 72 hours, the number of cells in the supernatant (non-attached cells) and the number of attached cells (after trypsinization) were counted using a Beckman particle counter (Beckman Coulter Inc., Fullerton, Calif.). The number of attached cells is expressed as percent of total cells (FIGS. 8-10).
U937 cells were treated with PMA (0.1-100 nM), bryostatin 1 (1-1000 nM), the indicated compound (1-1000 nM), 10 nM PMA with different concentrations of bryostatin 1 (1-1000 nM) or 10 nM PMA with different concentrations of indicated compound (1-1000 nM). The number of attached and non-attached cells was counted and the number of total cells was expressed as % of control. The bars and error bars represent the average and the standard error of the mean of five independent experiments (FIGS. 8-10).
(§2) U937 cells (Sundstrom and Nilsson, 1976), purchased from ATCC (Manassas, Va.) and cultured in RPMI-1640 medium supplemented with 10% FBS (ATCC, Manassas, Va.), were plated in 35 mm dishes at a density of 1×10^5 living cells/ml and treated with different concentrations of the drugs or DMSO. After 72 hours, the number of cells in the supernatant (non-attached cells) and the number of attached cells (after trypsinization) were counted using a particle counter. The number of attached cells is expressed as percent of total cells.
U937 cells were treated with PMA (0.01-100 nM), bryostatin 1 (0.1-1000 nM), analogue 12 (MERLE 28) (0.1-1000 nM), 10 nM PMA with different concentrations of bryostatin 1 (0.1-1000 nM) or 10 nM PMA with different concentrations of analogue 12 (0.1-1000 nM). The numbers of attached and non-attached cells were counted and the number of total cells was expressed as % of control. The bars and error bars represent the average and the standard error of the mean of at least three independent experiments.
as §2
U937 cells were treated with PMA (0.1-100 nM), bryostatin 1 (1-1000 nM), the indicated compound (1-1000 nM), 10 nM PMA with different concentrations of bryostatin 1 (1-1000 nM) or 10 nM PMA with different concentrations of indicated compound (1-1000 nM). The number of attached and non-attached cells was counted and the number of total cells was expressed as % of control. The bars and error bars represent the average and the standard error of the mean of at least three independent experiments.

The subject of data set [3] is U937 cells. Briefly: Attachment of U937 cells. Type of data set: cell-based, human. To be noted: 72 hours. How it is done:
as §1
U937 cells were treated with PMA (0.1-100 nM), bryostatin 1 (1-1000 nM), the indicated compound (1-1000 nM), 10 nM PMA with different concentrations of bryostatin 1 (1-1000 nM) or 10 nM PMA with different concentrations of indicated compound (1-1000 nM) for 72 hours. The number of attached cells and total cells were counted and the attached cells were graphed as percent of total cells. The bars and error bars represent the average and the standard error of the mean of five independent experiment (FIGS. 8-10).
as §2
U937 cells were treated with PMA (0.01-100 nM), bryostatin 1 (0.1-1000 nM), analogue 12 (MERLE 28) (0.1-1000 nM), 10 nM PMA with different concentrations of bryostatin 1 (0.1-1000 nM) or 10 nM PMA with different concentrations of analogue 12 (0.1-1000 nM). The number of attached cells and total cells were counted and the attached cells were graphed as percent of total cells. The bars and error bars represent the average and the standard error of the mean of at least three independent experiments.
as §2
U937 cells were treated with PMA (0.1-100 nM), bryostatin 1 (1-1000 nM), the indicated compound (1-1000 nM), 10 nM PMA with different concentrations of bryostatin 1 (1-1000 nM) or 10 nM PMA with different concentrations of indicated compound (1-1000 nM) for 72 hours. The number of attached cells and total cells were counted and the attached cells were graphed as percent of total cells. The bars and error bars represent the average and the standard error of the mean of at least three independent experiments.

Data set [4] deals with HIV long terminal repeat (LTR) promoter. Description: cells. Type of data set: cell-based. To be noted: Jurkat cells; for EC50: Human immunodeficiency virus 1, LTR-luciferase, incubated 24, 48 and 72 hours (time of the listed values not stated); for Selectivity (CC50:EC50) / selectivity ratio: ratio of the CC50 to the EC50; for selectivity ratio: human. How it is done:
(§3) The compounds were also tested in the T cell derived Jurkat cell line transfected with a luciferase reporter under control of an HIV long terminal repeat (LTR) promoter. Specifically, EC50 and CC50 values were determined in parallel using 10 concentrations of compound from 3 fold serial dilutions starting a 5 uM as the highest concentration. Cells and media were added to compounds with a final concentration of DMSO of 1% and incubated at 37° C., 5% CO2 for 24, 48 and 72 hours. EC50 was measured by induced luciferase activity detected by the use of the Steady-Glo® Luciferase reagent (PROMEGA) with an EnVision (Perkin-Elmer) plate reader. CC50 was determined by the dose dependent knock down of cellular ATP detected by the use of CellTiter-Glo® Luminescent Cell Viability reagent (PROMEGA) with an EnVision (Perkin-Elmer) plate reader.

A short description of data set [5]: in vitro. To be noted: human; Jurkat cells, knock down of cellular ATP. Type of data set: cell-based. The method, then: as §3
Setting [6] is: 10 nM PMA with different concentrations of compound.

`C=C1C[C@@H]2C[C@@H]3CC(=C)C[C@H](/C=C/C(C)(C)[C@]4(OC)O[C@@H](C/C(=C\C(=O)OC)[C@@H]4OC(=O)/C=C/C=C/CCC)C[C@H]([C@@H](C)OCOCc4ccccc4)OC(=O)C[C@H](OCc4ccc(OC)cc4)C[C@H](C1)O2)O3` displayed a ring closure, yield of all isomers in data set [1] (from C=C1C[C@H](C[C@@H]2CC(=C)C[C@H](/C=C/C(C)(C)[C@]3(OC)O[C@H](C[C@@H](O)[C@@H](C)OCOCc4ccccc4)C/C(=C\C(=O)OC)[C@@H]3OC(=O)/C=C/C=C/CCC)O2)O[C@H](C[C@H](CC(=O)O)OCc2ccc(OC)cc2)C1, 0.74 mM, 2 steps) of 52%.
In data set [1] (from C=C1C[C@H](C[C@@H]2CC(=C)C[C@H](/C=C/C(C)(C)[C@]3(OC)O[C@H](C[C@@H](O)[C@@H](C)OCOCc4ccccc4)C/C(=C\C(=O)OC)[C@@H]3OC(C)=O)O2)O[C@H](C[C@H](CC(=O)O)OCc2ccc(OC)cc2)C1, 0.97 mM, 2 steps), `C=C1C[C@@H]2C[C@@H]3CC(=C)C[C@H](/C=C/C(C)(C)[C@]4(OC)O[C@@H](C/C(=C\C(=O)OC)[C@@H]4OC(C)=O)C[C@H]([C@@H](C)OCOCc4ccccc4)OC(=O)C[C@H](OCc4ccc(OC)cc4)C[C@H](C1)O2)O3` showed a ring closure, yield of all isomers of 58%.
The compound `C=C1C[C@@H]2C[C@@H]3CC(=C)C[C@H](/C=C/C(C)(C)[C@]4(OC)O[C@@H](CCC4=O)C[C@H]([C@@H](C)OCOCc4ccccc4)OC(=O)C[C@H](OCc4ccc(OC)cc4)C[C@H](C1)O2)O3` yielded a ring closure, yield of all isomers in data set [1] (from C=C1C[C@H](C[C@@H]2CC(=C)C[C@H](/C=C/C(C)(C)[C@]3(OC)O[C@H](C[C@@H](O)[C@@H](C)OCOCc4ccccc4)CCC3=O)O2)O[C@H](C[C@H](CC(=O)O)OCc2ccc(OC)cc2)C1, 0.85 mM, 2 steps) of 87%.
The compound `C=C1C[C@H]2C[C@H]3C[C@@H](O[Si](CC)(CC)CC)C[C@@H](C[C@@H](OCc4ccc(OC)cc4)CC(=O)O[C@@H]([C@@H](C)OCOCc4ccccc4)C[C@@H]4C/C(=C\C(=O)OC)[C@H](OC(=O)CCCCCCC)[C@@](OC)(O4)C(C)(C)/C=C/[C@@H](C1)O2)O3` registered a ring closure, yield of all isomers in data set [1] (from C=C1C[C@@H](C[C@H]2C[C@@H](O[Si](CC)(CC)CC)C[C@@H](C[C@H](CC(=O)O)OCc3ccc(OC)cc3)O2)O[C@@H](/C=C/C(C)(C)[C@]2(OC)O[C@H](C[C@@H](O)[C@@H](C)OCOCc3ccccc3)C/C(=C\C(=O)OC)[C@@H]2OC(=O)CCCCCCC)C1, 0.79 mM) of 91%.
Regarding `C=C1C[C@H]2C[C@]3(OC)O[C@H](C[C@@H](O[Si](CC)(CC)CC)CC(=O)O[C@@H]([C@@H](C)OCOCc4ccccc4)C[C@@H]4C/C(=C\C(=O)OC)[C@H](OC(=O)/C=C/C=C/CCC)[C@@](OC)(O4)C(C)(C)/C=C/[C@@H](C1)O2)C[C@H](OC(C)=O)C3(C)C`, in data set [1] (from C=C1C[C@@H](C[C@]2(OC)O[C@H](C[C@H](CC(=O)O)O[Si](CC)(CC)CC)C[C@H](OC(C)=O)C2(C)C)O[C@@H](/C=C/C(C)(C)[C@]2(OC)O[C@H](C[C@@H](O)[C@@H](C)OCOCc3ccccc3)C/C(=C\C(=O)OC)[C@@H]2OC(=O)/C=C/C=C/CCC)C1, 0.62 mM, 2 steps), the ring closure, yield of all isomers was determined as 62%.
In the case of `C=C1C[C@H]2CC3(O)O[C@H](C[C@@H](O)CC(=O)O[C@@H]([C@@H](C)O)C[C@@H]4C/C(=C\C(=O)OC)[C@H](OC(=O)/C=C/C=C/CCC)[C@@](O)(O4)C(C)(C)/C=C/[C@@H](C1)O2)C[C@H](OC(C)=O)C3(C)C` [MERLE 28], the “Block of PMA inhibition of U937 cell proliferation” value in data set [2] (setting [6]) is on record as “Both of these aspects of bryostatin 1 induced biological response are captured”. In data set [2] (compound alone, 72 hours), the “Inhibition of U937 cell proliferation (total cells as % of control)” value was “very similar to those for bryostatin 1”. In data set [3] (setting [6]), the “Block of PMA-induced attachment of U937 cells” value was “blocks the effect of the phorbol ester when the two agents are administered together”. Moreover, the “Attachment of U937 cells (attached cells as percent of total)” value in data set [3] (compound alone) is given as “approaches that of bryostatin 1 itself”.
In the case of `C=C1CC2C[C@@H](O)CC(=O)O[C@@H]([C@@H](C)O)C[C@@H]3C/C(=C\C(=O)OC)[C@H](OC(C)=O)[C@@](O)(O3)C(C)(C)/C=C/[C@H]3CC(=C)C[C@@H](C[C@@H](C1)O2)O3` [MERLE 35], in data set [4], the EC50 came out at 0.01 µM, the “Selectivity (CC50:EC50)” value is given as “greater than one” and the selectivity ratio was 5. This compound also registered a CC50 in data set [5] of 0.05 µM.
With `C=C1CC2C[C@@H](O)CC(=O)O[C@@H]([C@@H](C)O)C[C@@H]3C/C(=C\C(=O)OC)[C@H](OC(=O)CCCCCN(C)C)[C@@](O)(O3)C(C)(C)/C=C/[C@H]3CC(=C)C[C@@H](C[C@@H](C1)O2)O3` [MERLE 37], in data set [4], the midpoint of the response, the EC50, lay at 0.08 µM; the “Selectivity (CC50:EC50)” value is “greater than one”; the selectivity ratio turned out to be 6.9. The compound further showed a CC50 in data set [5] of 0.55 µM.
